Reference: publication PMC10165273, “Itch receptor MRGPRX4 interacts with the receptor activity–modifying proteins” (The Journal of Biological Chemistry, 2023)
“And” between values parts separate entries of the source, which are not always exact repeats. Equal entries are not always repeated.

Tests used:
MRGPRX4 = target: T1, MRGPRX4 (Homo sapiens, UniProt Q96LA9); experiment: BRET2 β-arrestin2 recruitment to MRGPRX4; assay type: cell-based; settings: for BRET2 ratio: Fig 5c, MRGPRX4, 100μM ligand, listed as Ng
T1 construct: expressed in transfected cells; host or cells: HEK293T
T1 sequence (Q96LA9 whole entry): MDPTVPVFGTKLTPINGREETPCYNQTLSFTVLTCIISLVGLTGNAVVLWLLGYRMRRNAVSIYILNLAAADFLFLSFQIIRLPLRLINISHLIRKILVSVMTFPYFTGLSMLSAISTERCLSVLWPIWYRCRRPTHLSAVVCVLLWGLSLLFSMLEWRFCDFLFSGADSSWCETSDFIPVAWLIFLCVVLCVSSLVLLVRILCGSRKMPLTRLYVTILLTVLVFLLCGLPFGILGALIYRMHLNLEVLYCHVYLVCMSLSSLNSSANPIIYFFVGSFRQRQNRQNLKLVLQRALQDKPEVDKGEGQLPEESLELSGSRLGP
Text: (§1) The method for homogenous transfection of β-Arrestin and BRET^2 assay of β-Arrestin recruitment has been described previously ([51]). […] BRET^2 measurements were taken on the BioTek Synergy NEO2 microplate reader.
For MRGPRX4 DNA titration assays, HEK293T cells were cotransfected with either β-Arrestin1 or β-Arrestin2 with increasing amounts of MRGPRX4 (0.5, 1, or 2 pg/cell).
To measure the time-course of β-Arrestin2 recruitment to MRGPRX4 and CALCRL, the transfection and general procedure described above was followed, with the modification that Prolume Purple was added first, followed by addition of the appropriate agonists ([51]).
(§2) The BRET ratio for each sample was determined by calculating the ratio of the light intensity emitted by the GFP10 (515 nm) (acceptor) over the light intensity emitted by the RLuc3 (395 nm) (donor). Net BRET^2 was determined by subtracting the basal BRET^2 (β-arrestin-RLuc3 only) signal from the BRET^2 signals. All BRET values were normalized to the MRGPRX4-only condition.

MRGPRX4 + RAMP1 = target: T2, MRGPRX4 + RAMP1 (Homo sapiens, UniProt Q96LA9); experiment: BRET2 β-arrestin2 recruitment, MRGPRX4 with RAMP1; assay type: cell-based; settings: RAMP1 coexpression vs MRGPRX4 alone (Fig. 5F)
T2 construct: expressed in transfected cells; host or cells: HEK293T
T2 sequence (Q96LA9 whole entry): as above
Procedure: as §1, §2

[1] = MRGPRX4-GFP10 BRET2 time-course, 100 µM (Fig. 5)

## CC(C)[C@H]1CC[C@H](C(=O)N[C@H](Cc2ccccc2)C(=O)O)CC1 [Nateglinide]
MRGPRX4; 180 s
  BRET2 ratio: 0.01716 and 0.01419 and 0.01539
MRGPRX4; 240 s
  BRET2 ratio: 0.01732 and 0.01509 and 0.01494
MRGPRX4; 300 s
  BRET2 ratio: 0.01643 and 0.01468 and 0.01593
MRGPRX4; 360 s
  BRET2 ratio: 0.01701 and 0.01469 and 0.01434
MRGPRX4; 420 s
  BRET2 ratio: 0.01667 and 0.01531 and 0.01417
MRGPRX4; 480 s
  BRET2 ratio: 0.01658 and 0.0139 and 0.01409
MRGPRX4; 540 s
  BRET2 ratio: 0.01614 and 0.01397 and 0.01412
MRGPRX4; 600 s
  BRET2 ratio: 0.01601 and 0.01404 and 0.013
MRGPRX4; 660 s
  BRET2 ratio: 0.0171 and 0.01418 and 0.0126
MRGPRX4; 720 s
  BRET2 ratio: 0.01525 and 0.01442 and 0.01263
MRGPRX4; 780 s
  BRET2 ratio: 0.01511 and 0.01318 and 0.01349
MRGPRX4; 840 s
  BRET2 ratio: 0.01493 and 0.01394 and 0.01155
MRGPRX4; 900 s
  BRET2 ratio: 0.01482 and 0.01445 and 0.01282
MRGPRX4; 960 s
  BRET2 ratio: 0.01446 and 0.01322 and 0.01117
MRGPRX4; 1020 s
  BRET2 ratio: 0.01461 and 0.01265 and 0.01275
MRGPRX4; 1080 s
  BRET2 ratio: 0.01404 and 0.01402 and 0.01514
MRGPRX4; 1140 s
  BRET2 ratio: 0.01394 and 0.01316 and 0.01206
MRGPRX4; 1200 s
  BRET2 ratio: 0.01452 and 0.0141 and 0.01263
MRGPRX4; 1260 s
  BRET2 ratio: 0.01409 and 0.01389 and 0.01057
MRGPRX4; 1320 s
  BRET2 ratio: 0.01336 and 0.01334 and 0.0149
MRGPRX4; 1380 s
  BRET2 ratio: 0.01171 and 0.01208 and 0.01329
MRGPRX4; MRGPRX4, 100μM Ng
  normalized β-arrestin2 recruitment BRET2 signal (Figure 5f): 1
MRGPRX4; [1]
  Kfast: 0.008519
  Kslow: 0.002534
  Rate constant ratio: 3.361
  Tau (fast): 117.4
  Tau (slow): 394.6
  two-phase decay Plateau: 0.004639
  two-phase decay x0: 56.70
  two-phase decay y0: 0.01291
MRGPRX4; time course (Fig. 5C)
  time of peak β-arrestin2 recruitment to MRGPRX4: 3 min
MRGPRX4 + RAMP1
  decrease in β-arrestin2 recruitment upon nateglinide treatment: ~10%
